Data published in ChEMBL document CHEMBL2095176, “GSK Tuberculosis Screening Data”.
Values after ≈ are worked out from the molar mass of the structure shown.

What follows are compounds tested on Mycobacterium tuberculosis variant bovis BCG (assay: microbe, parasite or virus in culture).
Format: functional
In the case of `O=C(NNC(=O)c1ccc([N+](=O)[O-])o1)c1ccc2ccccc2c1`, the MIC90 is reported as 7.2 µM (≈ 2.34 µg/mL).
`O=C(CSc1ccc(Cl)cc1)NNC(=O)c1ccncc1` gave an MIC90 of 8.1 µM (≈ 2.61 µg/mL).
`Cc1ccc(C(=O)Nc2nc(-c3ccccn3)cs2)s1` was tested, and the MIC90 was 3.7 µM (≈ 1.12 µg/mL).
Work on `O=C(Nc1nc(-c2ccccn2)cs1)c1cccc(-n2cnnn2)c1` yielded an MIC90 of 8.5 µM (≈ 2.97 µg/mL).
Work on `Cc1ccc(Nc2ccc(C(=O)O)cc2N)cc1` yielded an MIC90 of 7.9 µM (≈ 1.91 µg/mL).
Compound `Clc1ccc(-c2nnc3sc(Cc4cccs4)nn23)cc1` has an MIC90 of 7.5 µM (≈ 2.5 µg/mL).
Compound `O=C(NC1=NCCS1)c1sc2cc(F)ccc2c1Cl` has an MIC90 of 8.2 µM (≈ 2.58 µg/mL).
`CCc1nnc(NC(=O)c2cccc(C(=O)Nc3nnc(CC)s3)n2)s1` showed an MIC90 of 1.5 µM (≈ 0.584 µg/mL).
`Nc1nc(N)c2c(Sc3ccc4ccccc4c3)cccc2n1` gave an MIC90 of 4.4 µM (≈ 1.4 µg/mL).
Work on `Cc1ccc(NC(=O)CCC(=O)NNC(=O)c2cccs2)cc1C` yielded an MIC90 of 8.3 µM (≈ 2.87 µg/mL).
Work on `O=C(COc1ccccc1F)Nc1nc(-c2ccccn2)cs1` yielded an MIC90 of 8.7 µM (≈ 2.87 µg/mL).
Work on `Cl.O=C(c1ccco1)N(CCCn1ccnc1)c1nc2c(Cl)cccc2s1` yielded an MIC90 of 7.2 µM.
`Cc1cc(C)cc(Oc2ncnc(N3CCCC3CN)c2C)c1` (stereo unspecified) was tested, and the MIC90 was 7.5 µM (≈ 2.34 µg/mL).
Compound `O=C(Nc1ccc(F)c(Cl)c1)c1cnc(N2CCN(c3ncccn3)CC2)c2ccccc12` has an MIC90 of 7.5 µM (≈ 3.47 µg/mL).
In the case of `NC(=O)c1cccc(-c2ccc(OCCCN3CC[C@@H](OCc4ccccc4)C3)cc2)c1`, the MIC90 is reported as 7.5 µM (≈ 3.23 µg/mL).
In the case of `NC(=O)c1cnc2ccc(S(=O)(=O)c3ccccc3)cc2c1Nc1ccc(O)c(F)c1`, the MIC90 is reported as 7.5 µM (≈ 3.28 µg/mL).
Work on `COc1ccc(Cc2nn3c(-c4ccc(C)cc4)nnc3s2)cc1` yielded an MIC90 of 7.5 µM (≈ 2.52 µg/mL).
In the case of `C[C@@H]1CN(c2ncnc3c2nc(C2CC2)n3C2CCNC2)C[C@H](C)O1` (stereo partly specified), the MIC90 is reported as 7.5 µM (≈ 2.57 µg/mL).
For `c1cc(Oc2ccnc(N3CCC4(CCNC4)CC3)n2)c2cc[nH]c2c1`, the MIC90 was 7.5 µM (≈ 2.62 µg/mL).
In the case of `COc1ccc(-c2ccc(Nc3cccc(S(=O)(=O)CCNCCc4cccs4)c3)nc2)cn1`, the MIC90 is reported as 7.2 µM (≈ 3.56 µg/mL).
With `Cc1ccc2nc(Cl)c(CNCc3cccs3)cc2c1` the MIC90 was 7.2 µM (≈ 2.18 µg/mL).
`Cc1ccc2nc(NC(=O)c3cc(C)nc4c3c(C)nn4C(C)C)sc2c1` showed an MIC90 of 7.6 µM (≈ 2.88 µg/mL).
`COc1cccc(C(=O)Nc2nc(-c3ccccn3)cs2)c1` showed an MIC90 of 7.6 µM (≈ 2.37 µg/mL).
`CCc1c(C)nc(-c2cccc(F)c2)nc1N1CCNCC1` showed an MIC90 of 7.6 µM (≈ 2.28 µg/mL).
`COc1ccc(-c2nnc(NC(=O)c3ccc(Br)s3)o2)cc1` was tested, and the MIC90 was 7.6 µM (≈ 2.89 µg/mL).
In the case of `O=C(NC1CCNCC1)c1nn(-c2ccc(Cl)cc2)c(=O)cc1N1CCC(Cc2ccccc2)CC1`, the MIC90 is reported as 7.6 µM (≈ 3.85 µg/mL).
`COC(=O)COc1ccc(CCn2nnc(-c3ccc(C(F)(F)F)cc3)n2)cc1` was tested, and the MIC90 was 7.6 µM (≈ 3.09 µg/mL).
With `O=C(Nc1ccccc1-c1nc(Cl)cs1)OCCOC1CCNCC1` the MIC90 was 7.6 µM (≈ 2.9 µg/mL).
`O=C(NC(Cc1ccccc1)C(=O)Nc1ccccc1N1CCOCC1)c1cccs1` (stereo unspecified) was tested, and the MIC90 was 1.8 µM (≈ 0.784 µg/mL).
`Cc1ccc2nc(C)c(C(=O)NCC(C)C)n2c1` was tested, and the MIC90 was 4.8 µM (≈ 1.18 µg/mL).
`COc1ccccc1NC(=O)CN(Cc1ccco1)C(=O)c1cccc(-n2cnnn2)c1` gave an MIC90 of 7.7 µM (≈ 3.33 µg/mL).
Work on `COc1ccc(C(=O)[C@H]2C[C@@H]2CN(Cc2ccccn2)Cc2ccccn2)cc1` yielded an MIC90 of 7.7 µM (≈ 2.98 µg/mL).
For `Oc1ccc(Nc2ccccc2Nc2ccccc2)cc1Cl`, the MIC90 was 7.7 µM (≈ 2.39 µg/mL).
In the case of `CCCc1ccc(S(=O)(=O)Nc2ccc(CN3CCN(CC4CC4)CC3)cc2)cc1.O=C(O)C(F)(F)F.O=C(O)C(F)(F)F`, the MIC90 is reported as 8.1 µM.
`Cc1ccc(SCCNC(=O)c2c(-c3ccccc3)noc2C)cc1` gave an MIC90 of 8.7 µM (≈ 3.07 µg/mL).
Compound `O=C(Nc1nnc(-c2ccc(Cl)s2)o1)c1ccc(Cl)s1` has an MIC90 of 7.5 µM (≈ 2.6 µg/mL).
Work on `Cc1cc(C)c(C)c(OCCCCNCc2ccco2)c1` yielded an MIC90 of 7.8 µM (≈ 2.24 µg/mL).
With `CCCOc1c(Br)cc(CNCC)cc1OCC` the MIC90 was 7.8 µM (≈ 2.47 µg/mL).
With `CN(CCOc1cccc(-c2ccc(C(=O)N3CCCC3)cc2)c1)Cc1ccc(F)cc1` the MIC90 was 7.8 µM (≈ 3.37 µg/mL).
`O=S(=O)(c1ccc(Cl)cc1)N1CCC(n2nnc3cc(C(F)(F)F)ccc32)CC1` was tested, and the MIC90 was 7.8 µM (≈ 3.47 µg/mL).
Work on `CC(=CC(=O)NC12CC3CC(CC(C3)C1)C2)c1cccc(Cl)c1` yielded an MIC90 of 7.8 µM (≈ 2.57 µg/mL).
`c1ccc(Cc2nnc(Sc3ccnc(N4CCN(c5ccncc5)CC4)n3)n2CCN2CCOCC2)cc1` gave an MIC90 of 9.9 µM (≈ 5.38 µg/mL).
In the case of `CC1=Nc2ccccc2CN1CC(O)c1cc(Br)cs1` (stereo unspecified), the MIC90 is reported as 8.4 µM (≈ 2.95 µg/mL).
Work on `Cc1c(Cl)cc(F)cc1S(=O)(=O)NCCCn1nc(Cl)c(N2CCCNCC2)cc1=O` yielded an MIC90 of 7.9 µM (≈ 3.89 µg/mL).
Compound `COc1ccc(-c2ccc(Nc3cccc(S(=O)(=O)CCN(C)Cc4cccs4)c3)nc2)cn1` has an MIC90 of 7.9 µM (≈ 3.91 µg/mL).
`CCCn1nnnc1NC(=O)c1ccc(Cl)c(Cl)c1` gave an MIC90 of 7.9 µM (≈ 2.37 µg/mL).
Work on `CNC(=O)c1cc(Nc2ncc(F)c(N(C)c3ccc4c(C)[nH]nc4c3)n2)cc(OCCCN)c1` yielded an MIC90 of 7.9 µM (≈ 3.78 µg/mL).
`CC(=O)CCN1C(=O)C(=O)c2cc(Br)ccc21` was tested, and the MIC90 was 7.9 µM (≈ 2.34 µg/mL).
`O=C(Nc1nc(-c2ccccn2)cs1)c1cncn1-c1ccccc1` showed an MIC90 of 4.9 µM (≈ 1.7 µg/mL).
For `CCCOC(=O)COc1ccc2c(=O)c(-c3ccccc3OC)coc2c1`, the MIC90 was 9.8 µM (≈ 3.61 µg/mL).
Compound `CN(C)S(=O)(=O)c1ccc(C(=O)Nc2nnc(-c3ccc(Br)cc3)o2)cc1` has an MIC90 of 8 µM (≈ 3.61 µg/mL).
`O=C(c1cccc(-n2cnnn2)c1)N1CCCCC1c1nc2ccccc2s1` (stereo unspecified) was tested, and the MIC90 was 8 µM (≈ 3.12 µg/mL).
For `O=C(Nc1ccccc1-c1nc(Br)cs1)OCC1CCNCC1`, the MIC90 was 8 µM (≈ 3.17 µg/mL).
Work on `Cc1cc(/C=C/c2cccc(C(=O)O)c2)cc(Cl)c1OC1CCN(C)C1` (stereo unspecified) yielded an MIC90 of 8 µM (≈ 2.97 µg/mL).
`Cc1nc(SCC(=O)Nc2sccc2C#N)n(Cc2ccc(Cl)cc2)c1C` was tested, and the MIC90 was 8.1 µM (≈ 3.38 µg/mL).
Work on `Cc1[nH]n2c(=O)cc(-c3ccccc3Cl)nc2c1-c1ccccc1` yielded an MIC90 of 8.1 µM (≈ 2.72 µg/mL).
